Test results from the supplement of paper PMC10307832.

Assays:
Experiment in all cases: relative viability (nuclei count vs DMSO), 5 days (fraction); higher = more cells survive
GSK-J4 + Foretinib = compound: CCOC(=O)CCNc1cc(N2CCc3ccccc3CC2)nc(-c2ccccn2)n1 [GSK-J4] + COc1cc2c(Oc3ccc(NC(=O)C4(C(=O)Nc5ccc(F)cc5)CC4)cc3F)ccnc2cc1OCCCN1CCOCC1 [Foretinib] (partner 0.25 µM)
How it was run: (§1)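 Lung cancer cell lines in 1536-well plates were dosed by pin tool the day after seeding, either with one drug alone or with a fixed anchor-drug dose plus five library-drug doses (not always all listed) in √10 steps. After 5 days, cells were fixed and their nuclei stained in one step (final 0.05% Triton X-100, 1% formaldehyde, 1 ug/ml Hoechst), then counted on 4× images. Relative viability is the nuclei count in treated wells divided by that in vehicle wells. Values are medians of duplicate plates.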

AZ3146 + Trametinib = compound: CN1CCC(CC1)OC2=CC(=C(C=C2)NC3=NC=C4C(=N3)N(C(=O)N4C)C5CCCC5)OC [AZ3146] + CC(=O)Nc1cccc(-n2c(=O)n(C3CC3)c(=O)c3c(Nc4ccc(I)cc4F)n(C)c(=O)c(C)c32)c1 [Trametinib] (partner 0.02 µM)
How it was run: as §1

AZ3146 + Navitoclax = compound: CN1CCC(CC1)OC2=CC(=C(C=C2)NC3=NC=C4C(=N3)N(C(=O)N4C)C5CCCC5)OC [AZ3146] + CC1(C)CCC(c2ccc(Cl)cc2)=C(CN2CCN(c3ccc(C(=O)NS(=O)(=O)c4ccc(N[C@H](CCN5CCOCC5)CSc5ccccc5)c(S(=O)(=O)C(F)(F)F)c4)cc3)CC2)C1 [Navitoclax] (partner 0.5 µM)
How it was run: as §1

GSK-J4 + Vorinostat = compound: CCOC(=O)CCNc1cc(N2CCc3ccccc3CC2)nc(-c2ccccn2)n1 [GSK-J4] + O=C(CCCCCCC(=O)Nc1ccccc1)NO [Vorinostat] (partner 1 µM)
How it was run: as §1

Cell Line | relative viability (GSK-J4 + Foretinib; first compound 0.5 µM) | relative viability (GSK-J4 + Foretinib; first compound 1.581 µM) | relative viability (GSK-J4 + Foretinib; first compound 5 µM) | relative viability (GSK-J4 + Foretinib; first compound 15.81 µM) | relative viability (GSK-J4 + Foretinib; first compound 50 µM) | relative viability (AZ3146 + Trametinib; first compound 0.08 µM) | relative viability (AZ3146 + Trametinib; first compound 0.253 µM) | relative viability (AZ3146 + Trametinib; first compound 0.8 µM) | relative viability (AZ3146 + Trametinib; first compound 2.53 µM) | relative viability (AZ3146 + Trametinib; first compound 8 µM) | relative viability (AZ3146 + Navitoclax; first compound 0.08 µM) | relative viability (AZ3146 + Navitoclax; first compound 0.253 µM) | relative viability (AZ3146 + Navitoclax; first compound 0.8 µM) | relative viability (AZ3146 + Navitoclax; first compound 2.53 µM) | relative viability (AZ3146 + Navitoclax; first compound 8 µM) | relative viability (GSK-J4 + Vorinostat; first compound 0.5 µM) | relative viability (GSK-J4 + Vorinostat; first compound 1.581 µM) | relative viability (GSK-J4 + Vorinostat; first compound 5 µM) | relative viability (GSK-J4 + Vorinostat; first compound 15.81 µM) | relative viability (GSK-J4 + Vorinostat; first compound 50 µM)
LOU-NH91 | 0.963 | 0.925 | 0.789 | 0.893 | 0.918 | 0.838 | 0.76 | 0.867 | 0.794 | 0.781 | 0.685 | 0.609 | 0.76 | 0.697 | 0.7 | 1.02 | 0.868 | 0.668 | 0.841 | 0.902
LU99A | 0.731 | 0.78 | – | 0.809 | 0.523 | – | 0.501 | 0.567 | 0.68 | 0.579 | 0.698 | 0.764 | 1.01 | 0.868 | 0.834 | 0.47 | 0.344 | – | 0.476 | 0.319
NCI-H358 | 0.677 | 0.684 | 0.639 | 0.616 | 0.631 | 0.162 | 0.123 | 0.139 | 0.127 | 0.12 | – | – | – | – | – | 0.662 | – | 0.671 | 0.602 | 0.455
NCI-H522 | – | – | – | – | – | 0.749 | 0.687 | 0.747 | 0.64 | 0.74 | – | – | – | – | – | 0.931 | 0.725 | – | 0.651 | 0.862
NCI-H650 | 0.972 | 1.01 | 0.686 | 0.941 | 0.712 | 0.899 | 0.959 | 0.959 | 0.994 | 1.09 | – | – | – | – | – | 0.358 | 0.342 | – | 0.319 | 0.266
NCI-H661 | 0.983 | 0.995 | 0.86 | 0.969 | 0.805 | 0.588 | 0.519 | 0.572 | 0.555 | 0.47 | – | – | – | – | – | 0.833 | 0.687 | 0.821 | 0.728 | 0.608
NCI-H1299 | 1.06 | 1.03 | 0.994 | 1.07 | 1.11 | – | – | – | – | – | 1.02 | 1.02 | 1.06 | 1 | 1.01 | – | – | – | – | –
NCI-H1563 | 0.943 | 0.898 | 0.747 | 0.801 | 0.973 | – | – | – | – | – | – | – | – | – | – | – | – | – | – | –
NCI-H1623 | 0.93 | 0.727 | 0.925 | 0.562 | 0.807 | – | – | – | – | – | – | – | – | – | – | – | – | – | – | –
NCI-H1648 | – | – | – | – | – | – | – | 0.219 | 0.563 | 0.568 | – | – | – | – | – | 0.527 | – | 0.868 | – | 0.415
NCI-H1703 | 0.319 | 0.403 | 0.337 | 0.325 | 0.304 | – | – | – | – | – | 1.06 | 0.91 | 0.993 | 0.708 | 0.283 | – | – | – | – | –
NCI-H1792 | – | – | – | – | – | 0.37 | 0.38 | 0.415 | 0.421 | 0.516 | 0.492 | 0.786 | 0.582 | 0.64 | 0.654 | – | – | – | – | –
NCI-H2342 | 1.02 | 1.02 | 1.11 | 1.01 | 1.11 | 0.715 | 0.741 | 0.989 | 0.89 | 0.89 | – | – | – | – | – | 0.81 | 0.842 | 0.887 | 1.09 | 1.02
SW 900 | 0.681 | 0.836 | 1.05 | 0.591 | 0.431 | 0.696 | – | 0.557 | 0.706 | 0.819 | – | – | – | – | – | 0.607 | 0.414 | 0.79 | 0.408 | 0.483
